# Data published in patent publication US11273153B2, “MAPK inhibitors” (EverBrilliant Pharma Pty Ltd, priority 2014, dated 2022).
# Where two headings read alike, the source gives them in different places.
# Tests used:
# [1] = target: p38α MAPK activation (phosphorylation) by MKK6 (Homo sapiens (Human), UniProt Q16539); test: In vitro activation assay (phosphorylation of p38α MAPK by MKK6, western blot); assay type: biochemical
# Description: The assay was analysed by immunoblotting using antibodies against pan p38 MAPK and activated (phosphorylated) p38α MAPK. […] The reaction is initiated by the addition of ATP and MKK6 and proceeds for 15 minutes.
# The assay was analysed by immunoblotting using antibodies against pan p38 MAPK and phosphorylated p38α MAPK.
# The reaction was started by the addition of active MKK6 (5 ng) and ATP (100 μM). After 30 minutes incubation at room temperature, the reaction was stopped with ethylenediaminetetraacetic acid (EDTA) (10 mM). Phosphorylation of p38 MAPK was analysed by Western blotting.
# Reaction samples were mixed 1:1 with Laemmli loading buffer, including β-mercaptoethanol (Biorad). Samples were heated at 95° C. for 5 minutes and 80 ng of protein was resolved using sodium dodecyl sulfate polyacrylamide gel electrophoresis (SDS-PAGE) gels (Biorad) at 200 V for 90 minutes. Proteins were transferred (100 V, 1 hour) to a polyvinylidene difluoride (PVDF) membrane (Merck). Membranes were incubated in blocking buffer (5% skim milk in Tris-buffered saline with Tween 20 (TBST), 1 hour, room temperature) and washed in TBST. Membranes were incubated with primary antibodies against total and phosphorylated p38 MAPK (1:1,000, Cell Signaling Technology) overnight at 4° C. Membranes were washed 4×15 minutes in TBST and probed with a secondary anti-mouse antibody at 1:2,000 dilution for 1 hour at room temperature, followed by washing in TBST (4×15 minutes). Signal detection was done with Western Lightning plus-ECL enhanced chemiluminescent substrate (Perkin Elmer) with the ChemiDoc Imaging System (BioRad).
# [2] = target: inactive non-phosphorylated p38α MAPK (Homo sapiens (Human), UniProt Q16539); test: Fluorescence polarisation (FP) binding assay, inactive enzyme
# Description: (§1) A number of compounds were also assessed for the inhibition of p38α MAPK activity (www.kinase-screen.mrc.ac.uk) in which a radioactive (^33P-labelled ATP) filter binding assay was used to directly measure phosphate incorporation. Table 1 summarises the binding affinities of the synthesised compounds to both forms of the enzyme as well as the inhibitory activities against p38α MAPK. By way of enabling a comparison with a non-thiophene compound the biological testing was also carried out for known inhibitor RWJ67657, shown in table 1.
# (§2) FP signals were measured with a PHERAstar microplate reader (BMG Labtech) using black, low-binding half-area 96 well plates (Corning). Each binding data point was carried out in duplicate or triplicate. Data were recorded in millipolarisation (mP) units and measured at an excitation wavelength of 485 nm and an emission wavelength of 520 nm. Tris(hydroxymethyl)aminomethane (Tris) assay buffer was used in all binding experiments and consisted of 10 mM Tris, […] potassium chloride, and 3.5 mM 3-((3-cholamidopropyl)dimethylammonium)-1-propanesulfonate (Chaps) at pH 8.0.
# (§3) Test compounds were prepared from dimethylsulfoxide stocks (10 mM). […] Plates were incubated at room temperature for 1 hour and FP signals were recorded. For binding experiments to active p38α MAPK, the FP signals were recorded after 2 hours incubation at room temperature. Data is represented as mean±SEM from two to three independent experiments.
# [3] = target: active phosphorylated p38α MAPK (Homo sapiens (Human), UniProt Q16539); test: Fluorescence polarisation (FP) binding assay, active enzyme
# Description: as §1, §2, §3
# p38α MAPK = p38α MAPK (Homo sapiens (Human), UniProt Q16539); test: Radioactive (33P-labelled ATP) filter binding assay of p38α MAPK activity; assay type: biochemical
# Description: as §1
# [4] = Table 5, read-out: Ki ± SEM (μM) to inactive p38α MAPK
# [5] = Table 6, read-out: Ki ± SEM (μM) to inactive p38α
# [6] = Table 5, read-out: Ki ± SEM (μM) to active p38α MAPK
# [7] = Table 6, read-out: Ki ± SEM (μM) to active p38α
# [8] = read-out: Ki to active p38α MAPK
# [9] = Table 1, read-out: Ki (μM, mean ± SEM) inactive p38α
# [10] = Table 1, average of two experiments, read-out: IC50 (μM, mean)
# [11] = read-out: IC50 (inhibitory activity against p38α MAPK)
# [12] = Table 1, read-out: Ki (μM, mean ± SEM) active p38α
# Chain of p38α MAPK activation (phosphorylation) by MKK6 (Q16539 whole entry): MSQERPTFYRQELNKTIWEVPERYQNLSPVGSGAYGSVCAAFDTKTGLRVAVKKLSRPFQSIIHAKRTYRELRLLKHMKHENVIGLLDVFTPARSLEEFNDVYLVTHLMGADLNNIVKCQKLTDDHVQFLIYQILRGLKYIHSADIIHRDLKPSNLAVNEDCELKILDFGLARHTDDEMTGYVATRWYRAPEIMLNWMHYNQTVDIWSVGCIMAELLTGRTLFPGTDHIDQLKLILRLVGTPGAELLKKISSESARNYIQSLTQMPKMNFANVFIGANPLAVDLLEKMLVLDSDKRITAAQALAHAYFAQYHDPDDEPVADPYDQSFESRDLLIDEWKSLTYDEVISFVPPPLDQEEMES
# Chain of active phosphorylated p38α MAPK (Q16539 whole entry): as above
# Chain of inactive non-phosphorylated p38α MAPK (Q16539 whole entry): as above
# Chain of p38α MAPK (Q16539 whole entry): as above
Compound,"Ki [2, 4]","Ki [2, 5]","Ki [3, 6]","Ki [3, 7]",also measured
"COC(=O)c1ccc(-c2c(C#CCCO)sc(-c3ccc(F)cc3)c2-c2ccncc2)cc1 [Compound 3.30, Methyl 4-(5-(4-fluorophenyl)-2-(4-hydroxybut-1-yn-1-yl)-4-(pyridin-4-yl)thiophen-3-yl)benzoate]",–,> 10 µM,–,> 10 µM,–
"OCCC#Cc1sc(-c2ccc(F)cc2)c(-c2ccncc2)c1-c1ccc(F)cc1 [Compound 3.50, 4-(3,5-bis(4-Fluorophenyl)-4-(pyridin-4-yl)thiophen-2-yl)but-3-yn-1-ol]",–,> 10 µM,–,0.9 ± 0.4 µM,–
"N#Cc1cccc(-c2c(C#CCCO)sc(-c3ccc(F)cc3)c2-c2ccncc2)c1 [Compound 3.47, 3-(5-(4-Fluorophenyl)-2-(4-hydroxybut-1-yn-1-yl)-4-(pyridin-4-yl)thiophen-3-yl)benzonitrile]",–,> 10 µM,–,1.8 ± 0.4 µM,–
"OCCC#Cc1sc(-c2ccc(F)cc2)c(-c2ccncc2)c1I [Compound 3.55, 4-(5-(4-Fluorophenyl)-3-iodo-4-(pyridin-4-yl)thiophen-2-yl)but-3-yn-1-ol]",–,> 10 µM,–,> 10 µM,–
"OCCC#Cc1sc(-c2ccc(F)cc2)c(-c2ccncc2)c1-c1cccc(CO)c1 [Compound 3.33, 4-(5-(4-Fluorophenyl)-3-(3-(hydroxymethyl)phenyl)-4-(pyridin-4-yl)thiophen-2-yl)but-3-yn-1-ol]",–,> 10 µM,–,1.3 ± 0.2 µM,–
"O=C(O)c1cccc(-c2c(C#CCCO)sc(-c3ccc(F)cc3)c2-c2ccncc2)c1 [Compound 3.31, 3-(5-(4-Fluorophenyl)-2-(4-hydroxybut-1-yn-1-yl)-4-(pyridin-4-yl)thiophen-3-yl)benzoic acid]",–,> 10 µM,–,7.1 µM,–
"Cc1ccc(S(=O)(=O)Nc2ccc(-c3c(C#CCCO)sc(-c4ccc(F)cc4)c3-c3ccncc3)cc2)cc1 [Compound 3.46, N-(4-(5-(4-fluorophenyl)-2-(4-hydroxybut-1-yn-1-yl)-4-(pyridin-4-yl)thiophen-3-yl)phenyl)-4-methylbenzenesulfonamide]",–,> 10 µM,–,> 10 µM,–
"COC(=O)c1ccccc1-c1c(C#CCCO)sc(-c2ccc(F)cc2)c1-c1ccncc1 [Compound 3.28, Methyl 2-(5-(4-fluorophenyl)-2-(4-hydroxybut-1-yn-1-yl)-4-(pyridin-4-yl)thiophen-3-yl)benzoate]",–,> 10 µM,–,8.7 µM,–
"OCCC#Cc1sc(-c2ccc(F)cc2)c(-c2ccncc2)c1-c1ccc(C(F)(F)F)cc1 [Compound 3.52, 4-(5-(4-Fluorophenyl)-4-(pyridin-4-yl)-3-(4-(trifluoromethyl)phenyl)thiophen-2-yl)but-3-yn-1-ol]",–,> 10 µM,–,> 10 µM,–
"O=C(NCCO)c1ccc(-c2c(C#CCCO)sc(-c3ccc(F)cc3)c2-c2ccncc2)cc1 [Compound 3.38, 4-(5-(4-Fluorophenyl)-2-(4-hydroxybut-1-yn-1-yl)-4-(pyridin-4-yl)thiophen-3-yl)-N-(2-hydroxyethyl)benzamide]",–,> 10 µM,–,1.7 ± 0.2 µM,–

# Further lines, with some results ahead:
"Ki [2, 4]","Ki [2, 5]","Ki [3, 6]","Ki [3, 7]",Compound,also measured
0.66 ± 0.06 µM,0.66 ± 0.06 µM,0.21 ± 0.01 µM,0.21 ± 0.01 µM,"Nc1nc(F)c(F)c(-c2cc(-c3ccncc3)c(-c3ccc(F)cc3)s2)c1F [Compound 5.20, 3,5,6-Trifluoro-4-(5-(4-fluorophenyl)-4-(pyridin-4-yl)thiophen-2-yl)pyridin-2-amine]","inhibition of p38α MAPK activation (phosphorylation) ([1]; 10 μM concentration): inhibition of p38α MAPK activation; Ki [3, 8]: 0.2 µM"
–,> 10 µM,–,3.9 µM,"OCCC#Cc1sc(-c2ccc(F)cc2)c(-c2ccncc2)c1C(O)CCc1ccccc1 (centres unmarked) [Compound 4.6, 4-(5-(4-Fluorophenyl)-3-(1-hydroxy-3-phenylpropyl)-4-(pyridin-4-yl)thiophen-2-yl)but-3-yn-1-ol]","Ki [2, 9]: > 10 µM; IC50 (p38α MAPK; [10]): 4.72 µM; IC50 (p38α MAPK; Table 6, read-out: IC50 (mean)): 4.72 µM; IC50 (p38α MAPK; [11]): 4.72 µM; Ki [3, 12]: 3.85 µM"
0.21 ± 0.04 µM,0.21 ± 0.04 µM,0.013 ± 0.006 µM,0.013 ± 0.006 µM,"OCCC#Cc1nc(-c2ccc(F)cc2)c(-c2ccncc2)n1CCCc1ccccc1 [RWJ67657, reference compound]","inhibition of p38α MAPK activation (phosphorylation) ([1]; 10 μM concentration): inhibition of p38α MAPK activation; Ki [2, 9]: 0.21 ± 0.04 µM; Ki [3, 12]: 0.013 ± 0.006 µM"
–,1.9 ± 0.3 µM,–,0.99 ± 0.09 µM,"OC(CCc1ccccc1)c1csc(-c2ccc(F)cc2)c1-c1ccncc1 (centres unmarked) [Compound 4.17, 1-(5-(4-Fluorophenyl)-4-(pyridin-4-yl)thiophen-3-yl)-3-phenylpropan-1-ol]","Ki [2, 9]: 1.9 ± 0.3 µM; IC50 (p38α MAPK; [10]): 0.26 µM; IC50 (p38α MAPK; Table 6, read-out: IC50 (mean)): 0.26 µM; IC50 (p38α MAPK; [11]): 0.26 µM; Ki [3, 12]: 0.99 ± 0.09 µM"
0.47 ± 0.01 µM,0.47 ± 0.01 µM,0.16 ± 0.02 µM,0.16 ± 0.02 µM,"Nc1nc(N)c(F)c(-c2cc(-c3ccncc3)c(-c3ccc(F)cc3)s2)c1F [Compound 5.21, 3,5-Difluoro-4-(5-(4-fluorophenyl)-4-(pyridin-4-yl)thiophen-2-yl)pyridine-2,6-diamine]","inhibition of p38α MAPK activation (phosphorylation) ([1]; 1 μM concentration): significant inhibition; inhibition of p38α MAPK activation (phosphorylation) ([1]; 10 μM concentration): inhibition of p38α MAPK activation; Ki ([2]; read-out: Ki to inactive non-phosphorylated p38α MAPK): 0.47 µM; Ki [3, 8]: 0.16 µM"
2.7 ± 0.3 µM,2.7 ± 0.3 µM,0.67 ± 0.03 µM,0.67 ± 0.03 µM,"O=C(CCCO)c1cc(-c2ccncc2)c(-c2ccc(F)cc2)s1 [Compound 5.10, 1-(5-(4-Fluorophenyl)-4-(pyridin-4-yl)thiophen-2-yl)-4-hydroxybutan-1-one]","inhibition of p38α MAPK activation (phosphorylation) ([1]; 10 μM concentration): inhibition of p38α MAPK activation; Ki [3, 8]: 0.67 µM"
5 ± 2 µM,5 ± 2 µM,2.8 ± 0.1 µM,2.8 ± 0.1 µM,"O=C(c1ccccc1)c1cc(-c2ccncc2)c(-c2ccc(F)cc2)s1 [Compound 5.16, (5-(4-Fluorophenyl)-4-(pyridin-4-yl)thiophen-2-yl) (phenyl)methanone]",inhibition of p38α MAPK activation (phosphorylation) ([1]; 10 μM concentration): inhibition of p38α MAPK activation
1.9 ± 0.4 µM,1.9 ± 0.4 µM,2.3 µM,2.3 µM,"Fc1ccc(-c2sc(I)cc2-c2ccncc2)cc1 [Compound 5.1, 4-(2-(4-Fluorophenyl)-5-iodothiophen-3-yl)pyridine]",–
0.98 ± 0.02 µM,0.98 ± 0.02 µM,0.25 ± 0.04 µM,0.25 ± 0.04 µM,"OCCCCc1cc(-c2ccncc2)c(-c2ccc(F)cc2)s1 [Compound 5.9, 4-(5-(4-Fluorophenyl)-4-(pyridin-4-yl)thiophen-2-yl)butan-1-ol]","inhibition of p38α MAPK activation (phosphorylation) ([1]; 10 μM concentration): inhibition of p38α MAPK activation; Ki [3, 8]: 0.25 µM"
1.1 ± 0.2 µM,1.1 ± 0.2 µM,0.19 ± 0.04 µM,0.19 ± 0.04 µM,"NCCC#Cc1cc(-c2ccncc2)c(-c2ccc(F)cc2)s1 [Compound 5.7, 4-(5-(4-Fluorophenyl)-4-(pyridin-4-yl)thiophen-2-yl)but-3-yn-1-amine]","Ki [3, 8]: 0.19 µM"
–,1.5 ± 0.5 µM,–,0.72 ± 0.03 µM,"Fc1ccc(-c2scc(CCCc3ccccc3)c2-c2ccncc2)cc1 [Compound 4.18, 4-(2-(4-Fluorophenyl)-4-(3-phenylpropyl)thiophen-3-yl)pyridine]","Ki [2, 9]: 1.5 ± 0.5 µM; IC50 (p38α MAPK; [10]): 0.27 µM; IC50 (p38α MAPK; Table 6, read-out: IC50 (mean)): 0.27 µM; IC50 (p38α MAPK; [11]): 0.27 µM; Ki [3, 12]: 0.72 ± 0.03 µM"
5 ± 0.4 µM,5 ± 0.4 µM,0.6 ± 0.1 µM,0.6 ± 0.1 µM,"Fc1ccc(-c2sccc2-c2ccncc2)cc1 [Compound 3.2, 4-(2-(4-Fluorophenyl)thiophen-3-yl)pyridine]",–
